The results in this text go back to US20210251981A1, “SOLID FORMS OF BERBERINE URSODEOXYCHOLATE AND COMPOSITIONS AND METHODS THEREOF” (SHENZHEN HIGHTIDE BIOPHARMACEUTICAL, LTD., priority 2017, published 2021).

Where two headings read alike, the source gives them in different places.

Data set [1] in a line: Accelerated stability evaluation (XRPD and HPLC after storage). The class given is physicochemical. The settings on record: for Purity (Area %): HPLC; for Form: XRPD; for decrease of HPLC purity: HPLC-DAD, under all three conditions. The text has this: (§1) XRPD patterns were collected on a PANalytical X-ray powder diffractometer fitted with an automatic sample changer, a theta-theta goniometer, automatic beam divergence slit and a PSD Vantec-1 detector. The X-ray tube voltage and amperage were set to 45 kV and 40 mA respectively. The diffractometer was aligned and a calibration check performed using a corundum reference material on the day of data collection. Data were collected and analyzed by the software Data Viewer.
(§2) Agilent 1260/1100 HPLC was utilized and detailed chromatographic conditions for purity and solubility measurement are listed in Table 5.
To evaluate the physical and chemical stability of Form A of BBR-UDCA and Form D of BBR-UDCA, samples were stored at 80° C. (sealed) for 24 hours, 25° C./60% RH (open) and 40° C./75% RH (open) for one week. […] The physical stability of Form A was better than Form D based on the 1-week stability results at 25° C./60% RH (open) and 40° C./75% RH (open).

Data set [2] is described as follows: 1-Month stability evaluation (XRPD and HPLC after storage). The settings on record: for Purity (Area %): HPLC; for Crystal Form: XRPD. It counts as physicochemical.
Excerpt: as §1, §2
Samples of Form A of BBR-UDCA, Form D of BBR-UDCA and BBR-UDCA (mixed crystals without quality control on crystal forms) were stored 25° C./60% RH (sealed) and 40° C./75% RH (sealed) for one month.

Data set [3] is described as follows: Hygroscopicity evaluation by Dynamic Vapor Sorption (DVS). The settings on record: for water uptake: DVS. It counts as physicochemical. As to the method:
DVS was measured via a SMS (Surface Measurement Systems) DVS Intrinsic.
Dynamic Vapor Sorption (DVS) isotherm plot of Form A of BBR-UDCA was collected at 25° C. with the various humidity, 60% RH-95% RH-0% RH-95% RH (60% RH was the ambient humidity). As the DVS plot shown, a step-like weight loss was observed between 10% RH and 20% RH.
To investigate the hygroscopicity of Form D of BBR-UDCA, DVS isotherm plot of Form D was collected at 25° C. between 0 and 95% RH.

Data set [4] is described as follows: Equilibrium aqueous solubility. The class given is physicochemical. As to the method: as §2
About 5 mg of each crystal type of solid (Form A of BBR-UDCA and Form D of BBR-UDCA, respectively) was weighed in separate 3-mL bottle, suspended into 1 mL of water, slurried (1000 rpm) at RT for 24 hours, and then centrifuged at 10000 rpm for 3 minutes. The resulting residual solids were characterized by XRPD and supernatant was measured by HPLC-DAD/ELSD. Due to the poor UV absorption of UDCA, DAD was used as the detector only for BBR and ELSD was used for both BBR and UDCA. […] The reason of the deviation from 1:1 may be that after HTD 1801 dissolving in water, a small amount of disproportionation occurred and it was hardly detected by XRPD due to its limited amount.

For data set [5] the following is noted: air exposure.
Setting [6] is: 1 week, 25° C./60% RH (open), * = degree of crystallinity decreased.
The mark [7] stands for this setting: 1 week, 40° C./75% RH (open), * = degree of crystallinity decreased.
Where [8] appears, read: 1 Month, 25° C./60% RH (sealed).
Where [9] appears, read: 1 Month, 40° C./75% RH (sealed).
The mark [10] stands for this setting: water, RT, 24 hours, ELSD as detector.

For the molecule `COc1ccc2cc3[n+](cc2c1OC)CCc1cc2c(cc1-3)OCO2.C[C@H](CCC(=O)[O-])[C@H]1CC[C@H]2[C@@H]3[C@@H](O)C[C@@H]4C[C@H](O)CC[C@]4(C)[C@H]3CC[C@]12C` [Form A, berberine ursodeoxycholate], the “Purity/Initial purity (%)” value in data set [1] (1 week, 25° C./60% RH (open)) was 99.9%; in data set [1] (1 week, 40° C./75% RH (open)), 99.8%; in data set [1] (24 hours, 80° C. (sealed)) it was 99.8%; in data set [2] (setting [8]), 99.8%; in data set [2] (setting [9]), 99.9%. Moreover, the “Purity (Area %)” value in data set [1] (1 week, 25° C./60% RH (open)) amounted to 99.4 Area %; in data set [1] (1 week, 40° C./75% RH (open)) it was 99.4 Area %; in data set [1] (24 hours, 80° C. (sealed)), 99.3 Area %; in data set [1] (Initial), 99.5 Area %; in data set [2] (setting [8]) it was 99.3 Area %; in data set [2] (setting [9]), 99.4 Area %. Further, the “Purity (Area %)” value in data set [2] (Initial) is 99.5 Area %. The Form entry in data set [1] (setting [6]) is given as “Form A”; in data set [1] (setting [7]), “Form A”; in data set [1] (24 hours, 80° C. (sealed)) it was “Form A”. Besides, the “decrease of HPLC purity” value in data set [1] is listed as “no HPLC purity decrease”. In addition, the “Crystal Form” value in data set [2] (setting [8]) and in data set [2] (setting [9]) was “Form A” in each case. In addition, the “crystal-form change after DVS (XRPD)” value in data set [3] (25° C., 60% RH-95% RH-0% RH-95% RH) is given as “no crystal-form change”. In data set [3] (25° C./80% RH), this molecule showed a water uptake of 9.9%. Also, in data set [4] (water, RT, 24 hours slurry, XRPD, listed as Type A), the “Form of residual solid” value is listed as “Type A”. The “Solubility of BBR” value in data set [4] (water, RT, 24 hours, DAD as detector) was determined as 350 µg/mL; in data set [4] (setting [10]), 330 µg/mL. Further, in data set [4] (setting [10]), the “Solubility of UDCA” value stood at 420 µg/mL.
As for `COc1ccc2cc3[n+](cc2c1OC)CCc1cc2c(cc1-3)OCO2.C[C@H](CCC(=O)[O-])[C@H]1CC[C@H]2[C@@H]3[C@@H](O)C[C@@H]4C[C@H](O)CC[C@]4(C)[C@H]3CC[C@]12C` [Form D, berberine ursodeoxycholate], the “Purity/Initial purity (%)” value was 99.3% in data set [1] (1 week, 25° C./60% RH (open)); 98.3% in data set [1] (1 week, 40° C./75% RH (open)); 99.5% in data set [1] (24 hours, 80° C. (sealed)); 97.6% in data set [2] (setting [8]); 95.1% in data set [2] (setting [9]). Besides, the “Purity (Area %)” value in data set [1] (1 week, 25° C./60% RH (open)) stood at 98.9 Area %; in data set [1] (1 week, 40° C./75% RH (open)), 97.9 Area %; in data set [1] (24 hours, 80° C. (sealed)), 99.0 Area %; in data set [1] (Initial), 99.6 Area %; in data set [2] (setting [8]) it was 97.2 Area %; in data set [2] (setting [9]), 94.7 Area %. Besides, the “Purity (Area %)” value in data set [2] (Initial) was found to be 99.6 Area %. In addition, the Form result in data set [1] (setting [6]) is recorded as “Form D*”; in data set [1] (setting [7]) it was “Form D*”; in data set [1] (24 hours, 80° C. (sealed)) it was “Form D”. Also, the “decrease of HPLC purity” value in data set [1] is 0.5-1.7 area %. Also, the “crystal-form change (XRPD)” value in data set [1] (all three conditions: 80° C. sealed 24 hours, 25° C./60% RH open and 40° C./75% RH open one week) is “no crystal-form change”; in data set [2] (25° C./60% RH (sealed) and 40° C./75% RH (sealed), one month) it was “No crystal-form change”. Also, the “Crystal Form” value in data set [2] (setting [8]) and in data set [2] (setting [9]) was “Form D” throughout. In addition, in data set [3] (25° C., over 90% RH), the “behaviour in high humidity (DVS)” value is on record as “deliquesced in high humidity”. Further, the water uptake is reported as 24.5% in data set [3] (25° C., 95% RH) and 4.1% in data set [3] (25° C./80% RH). The “Solubility of UDCA” value in data set [4] stood at 520 µg/mL. Further, the “molar ratio (BBR:UDCA)” value in data set [4] is on record as 0.93:1.
On to `COc1ccc2cc3[n+](cc2c1OC)CCc1cc2c(cc1-3)OCO2.C[C@H](CCC(=O)[O-])[C@H]1CC[C@H]2[C@@H]3[C@@H](O)C[C@@H]4C[C@H](O)CC[C@]4(C)[C@H]3CC[C@]12C` [Form J, berberine ursodeoxycholate], for which the form conversion entry in data set [5] is recorded as “converts to Form A”.
As to `COc1ccc2cc3[n+](cc2c1OC)CCc1cc2c(cc1-3)OCO2.C[C@H](CCC(=O)[O-])[C@H]1CC[C@H]2[C@@H]3[C@@H](O)C[C@@H]4C[C@H](O)CC[C@]4(C)[C@H]3CC[C@]12C` [Mixed crystal, berberine ursodeoxycholate], the “Purity/Initial purity (%)” value in data set [2] (setting [8]) came to 91.7%; in data set [2] (setting [9]), 89.6%. Further, the results for the “Purity (Area %)” value in data set [2] (setting [8]), in data set [2] (setting [9]) and in data set [2] (Initial) were 90.8 Area %, 88.7 Area % and 99.0 Area %, respectively. For the same molecule, the “Crystal Form” value in data set [2] (setting [8]) and in data set [2] (setting [9]) was “Mixed” throughout.
